The source of these data is patent US20040171086A1, “Selective modulation of TLR-mediated biological activity” (3M Innovative Properties Company, priority 2003, published 2004).

In one assay the target is T1, TLR6 (Homo sapiens, UniProt Q9Y2C9).
T1 construct: expressed in transfected cells; host or cells: Namalwa (ATCC CRL-1432), pCI-TLR6 vector, G418 selected
T1 sequence (Q9Y2C9 32-796): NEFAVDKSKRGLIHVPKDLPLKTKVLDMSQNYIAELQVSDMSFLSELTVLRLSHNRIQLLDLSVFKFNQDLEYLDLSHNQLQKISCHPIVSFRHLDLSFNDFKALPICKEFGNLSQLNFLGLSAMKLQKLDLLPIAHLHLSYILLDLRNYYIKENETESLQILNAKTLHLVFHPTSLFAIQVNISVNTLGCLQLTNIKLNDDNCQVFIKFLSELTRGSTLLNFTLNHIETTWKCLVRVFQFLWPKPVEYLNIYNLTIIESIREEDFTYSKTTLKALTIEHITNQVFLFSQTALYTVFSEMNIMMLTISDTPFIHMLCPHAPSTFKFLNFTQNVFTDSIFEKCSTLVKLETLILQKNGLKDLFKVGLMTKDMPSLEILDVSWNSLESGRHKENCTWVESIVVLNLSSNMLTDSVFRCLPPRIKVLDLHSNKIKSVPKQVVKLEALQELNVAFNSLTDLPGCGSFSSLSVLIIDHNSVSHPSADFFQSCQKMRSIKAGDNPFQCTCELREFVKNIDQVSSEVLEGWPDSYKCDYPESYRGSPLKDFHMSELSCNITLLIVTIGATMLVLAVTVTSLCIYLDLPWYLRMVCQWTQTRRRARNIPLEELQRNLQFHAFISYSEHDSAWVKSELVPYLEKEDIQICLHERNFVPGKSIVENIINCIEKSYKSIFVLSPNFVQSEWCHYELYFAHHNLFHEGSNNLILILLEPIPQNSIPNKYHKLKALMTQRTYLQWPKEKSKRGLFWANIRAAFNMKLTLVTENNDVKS
As to the kind of experiment: IFN-α1-luciferase reporter assay in genetically modified Namalwa cells, TLR6. In kind it is cell-based. Conditions: 10 μM IRM, 18 hours. As to the method: (§1) Results are shown in Table 6 and are expressed as fold induction of IFN-α1 —induced luciferase signal, again with respect to a vehicle control.
(§2) The assay identified TLR6-selective compounds (i.e., compounds that modulate TLR6-mediated activity, but not TLR7-mediated activity), TLR7-selective compounds (compounds that modulate TLR7-mediated activity, but not TLR6-mediated activity), and compounds that modulate cellular activity through both TLR6 and TLR7.
(§3) Unless otherwise indicated, all incubations were performed at 37° C. with 5% CO2 at 98% humidity.
(§4) Culture medium was prepared from complete RPMI 1640 medium (BioSource International, Inc., Camarillo, Calif.). Fetal bovine serum (Atlas Biologicals, Inc., Ft. Collins, Colo.) was added to a final concentration of 7.5% (vol/vol); L-glutamine (BioSource International, Inc.) was added to 5 mM; and sodium pyruvate (BioSource International, Inc.) was added to 1 mM.
Namalwa cells were grown by incubation in culture medium overnight. Cells were harvested by centrifugation in a tabletop centrifuge (1200 RPM for 5 minutes), and then resuspended in phosphate buffered sucrose to a concentration of 1.3×10^7 cells/mL.
For each transfection, a 750 μL aliquot of the cell suspension was placed in an electroporation cuvette with 4 mm gaps. 10 μg of the pIFN-α1-luc vector and 10 μg of the pCI-TLR6 vector were added to the electroporation cuvette. The cell and vector mixtures were incubated at room temperature for 5 minutes. The cells were electroporated using a BioRad Gene Pulser (BioRad Laboratories, Hercules, Calif.) set to at 500 μF capacitance and […], then incubated at room temperature for 5 minutes.
(§5) The electroporated cells were suspended in 10 mLs of culture medium and incubated overnight. Dead cells and debris were removed after 24 hours using a MACS Dead Cell Removal kit (Miltenyi Biotec, Auburn, Calif.). Cells were resuspended in 10 mL of culture medium and incubated for an additional 24 hours.
(§6) Transfected cells were selected by adding G418 (Promega Corp., Madison, Wis.) to a final concentration of 1 mg/mL and incubating the cells for seven days.
(§7) The selected transfected cells were counted and resuspended to a concentration of 1×10^6 cell per mL in culture medium. 100 μl aliquots of cells were placed in the wells of a white-walled, white-bottomed 96-well plate (Corning, Inc., Corning, N.Y.). 1.0 μL of an IRM compound from Table 1 (prepared at 1 mM in 100% DMSO) was added to some cell aliquots so that the final concentration of IRM compound was 10 μM. As a positive control, some cell aliquots were incubated with Sendai virus instead of IRM compound. As a negative control, some cell aliquots were incubated with DMSO without IRM compound. In all cases, the cells were incubated for 18 hours.
(§8) The plates were equilibrated to room temperature before one volume of reconstituted LucLight Plus (Packard Instruments, Meriden, Conn.) was added to each aliquot of cells. Each well of the plate was read on an LJL Analyst (LJL Biosystems, Inc., Sunnyvale, Calif.) set with a 5 minute dark adapt. Results are shown in Table 6 and are expressed as fold increase of the IFN-αl—induced luciferase signal compared to a DMSO control.
For orientation: In a reporter assay the amount or activity of a reporter protein is the signal.

Another assay addresses T2, TLR7 (Homo sapiens, UniProt Q9NYK1).
T2 sequence (Q9NYK1 27-1049): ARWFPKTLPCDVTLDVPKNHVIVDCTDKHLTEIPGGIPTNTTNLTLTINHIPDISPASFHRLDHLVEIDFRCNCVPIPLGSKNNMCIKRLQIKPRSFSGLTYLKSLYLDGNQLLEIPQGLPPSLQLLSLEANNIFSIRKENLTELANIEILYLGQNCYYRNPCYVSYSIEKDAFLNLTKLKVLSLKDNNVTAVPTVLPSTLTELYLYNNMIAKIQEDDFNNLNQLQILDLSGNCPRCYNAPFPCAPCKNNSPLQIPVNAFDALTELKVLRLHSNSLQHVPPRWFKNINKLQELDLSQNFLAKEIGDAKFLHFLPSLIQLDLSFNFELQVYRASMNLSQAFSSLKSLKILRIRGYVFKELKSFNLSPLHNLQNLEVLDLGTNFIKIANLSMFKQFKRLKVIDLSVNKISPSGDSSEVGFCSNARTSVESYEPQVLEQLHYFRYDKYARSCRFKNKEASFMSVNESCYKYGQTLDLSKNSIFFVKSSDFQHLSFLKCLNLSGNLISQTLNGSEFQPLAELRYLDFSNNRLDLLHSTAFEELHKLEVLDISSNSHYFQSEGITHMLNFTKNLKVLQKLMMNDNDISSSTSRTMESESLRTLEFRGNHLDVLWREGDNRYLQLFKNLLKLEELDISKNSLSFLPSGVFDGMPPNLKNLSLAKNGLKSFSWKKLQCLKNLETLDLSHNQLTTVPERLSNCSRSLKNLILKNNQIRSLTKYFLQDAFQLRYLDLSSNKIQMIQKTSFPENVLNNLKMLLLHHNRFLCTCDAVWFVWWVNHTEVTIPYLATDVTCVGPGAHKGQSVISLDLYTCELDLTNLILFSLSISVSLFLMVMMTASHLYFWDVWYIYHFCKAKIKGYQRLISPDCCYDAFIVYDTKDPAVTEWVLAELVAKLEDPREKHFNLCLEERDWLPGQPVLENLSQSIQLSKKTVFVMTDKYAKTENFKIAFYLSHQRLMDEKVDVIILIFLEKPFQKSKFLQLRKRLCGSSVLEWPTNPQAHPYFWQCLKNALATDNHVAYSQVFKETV
As to the kind of experiment: IFN-α1-luciferase reporter assay in genetically modified Namalwa cells, TLR7. Format: cell-based. Also noted: expressed in transfected cells; host or cells: Namalwa (ATCC CRL-1432). Conditions: 10 μM IRM, 18 hours. As to the method: as §1, §2, §3, §4
Namalwa cells were grown by incubation in culture medium overnight. Cells were harvested by centrifugation in a tabletop centrifuge (1200 RPM for 5 minutes), and then resuspended in phosphate buffered sucrose to a concentration of 1.3×10^7 cells/mL. […]
as §5, §6, §7, §8

For `CCCCc1nc2c(N)nc3cccnc3c2n1CCNC(=O)c1ccc(Br)s1` [IRM42, N^2-[2-(4-amino-2-butyl-1H-imidazo[4,5-c][1,5]naphthyridin-1-yl)ethyl]-5-bromo-2-thiophenecarboxamide], the “TLR6: fold increase of the IFN-α1-induced luciferase signal compared to a DMSO control” value (“TLR6: fold increase” below) on TLR6 is listed as 0.98 fold increase. The “TLR7: fold increase of the IFN-α1-induced luciferase signal compared to a DMSO control” value (“TLR7: fold increase” for short) at TLR7 came to 3.54 fold increase.

`Nc1nc2ccccc2c2c1ncn2CCCCCCCCNC(=O)c1ccccc1` [IRM43, N-[8-(4-amino-1H-imidazo[4,5-c]quinolin-1-yl)octyl]benzamide]: at TLR6, the “TLR6: fold increase” value is reported as 1.07 fold increase. At TLR7, the “TLR7: fold increase” value was 2.17 fold increase.

For `CCCCc1nc2c(N)nc3ccc(OCC(=O)N4CCOCC4)cc3c2n1C` [IRM44, 2-[(4-amino-2-butyl-1-methyl-1H-imidazo[4,5-c]quinolin-8-yl)oxy]-1-morpholin-1-ylethanone], the “TLR6: fold increase” value at TLR6 was 6.10 fold increase. Moreover, on TLR7, the “TLR7: fold increase” value stood at 1.60 fold increase.

Turning to `CCC(COCCCc1ccccc1)n1cnc2c(N)nc3ccccc3c21` (centres unmarked) [IRM45, 1-{1-[(3-phenylpropoxy)methyl]propyl}-1H-imidazo[4,5-c]quinolin-4-amine], at TLR6, the “TLR6: fold increase” value turned out to be 5.56 fold increase. Moreover, at TLR7, the “TLR7: fold increase” value came out at 1.87 fold increase.

Take `Nc1nc2ccccc2c2c1ncn2CCCC(=O)c1ccccc1` [IRM46, 4-(4-amino-1H-imidazo[4,5-c]quinolin-1-yl)-1-phenylbutan-1-one]: on TLR6, the “TLR6: fold increase” value turned out to be 3.75 fold increase. In addition, at TLR7, the “TLR7: fold increase” value is listed as 1.83 fold increase.

As to `Cc1nc2c(N)nc3ccccc3c2n1CCOCC#Cc1ccccc1` [IRM47, 2-methyl-1-{2-[(3-phenylprop-2-ynyl)oxy]ethyl}-1H-imidazo[4,5-c]quinolin-4-amine], the “TLR6: fold increase” value at TLR6 turned out to be 9.42 fold increase. For the same compound, the “TLR7: fold increase” value at TLR7 worked out at 1.91 fold increase.

`CCc1nc2c(N)nc3ccc(OCc4ccccc4)cc3c2n1CCCCNC(=O)c1ccccc1` [IRM48, N-{4-[4-amino-8-(benzyloxy)-2-ethyl-1H-imidazo[4,5-c]quinolin-1-yl]butyl}benzamide]: the “TLR6: fold increase” value at TLR6 was determined as 4.56 fold increase. In addition, on TLR7, the “TLR7: fold increase” value was found to be 1.62 fold increase.

As to `COCCc1nc2c(N)nc3ccccc3c2n1CCOCCNC(=O)N1CCOCC1` [IRM49, N-(2-{2-[4-amino-2-(2-methoxyethyl)-1H-imidazo[4,5-c]quinolin-1-yl]ethoxy}ethyl)morpholine-4-carboxamide], the “TLR6: fold increase” value at TLR6 is 10.92 fold increase. Further, the “TLR7: fold increase” value at TLR7 is given as 1.95 fold increase.

With `CCc1nc2c(N)nc3ccccc3c2n1CCCCSC(C)C` [IRM50], on TLR6, the “TLR6: fold increase” value came to 8.80 fold increase. The “TLR7: fold increase” value on TLR7 is on record as 1.91 fold increase.

Take `COCCc1nc2c(N)nc3ccccc3c2n1CCOCCNC(=O)c1ccc(C(=O)NCCOCCn2c(CCOC)nc3c(N)nc4ccccc4c32)cc1` [IRM51, N,N′-bis(2-{2-[4-amino-2-(2-methoxyethyl)-1H-imidazo[4,5-c]quinolin-1-yl]ethoxy}ethyl)terephthalamide]: the “TLR6: fold increase” value at TLR6 is 3.67 fold increase. At TLR7, the “TLR7: fold increase” value is 1.74 fold increase.
